Source: patent US12031897B2, “Target-locking single-molecule nanoscopy” (Memorial Sloan Kettering Cancer Center, priority 2019, dated 2024)

What was measured:
[1] = tested on: CMV mini-gene transcription site (tdPCP-EGFP nascent RNA); assay: tdPCP-EGFP nascent transcription dynamics at the CMV mini-gene after inhibitor addition (wide-field live-cell imaging); assay type: cell-based, human; conditions: U-2 OS cells, after adding 10 μM flavopiridol or 10 μM triptolide, individual transcription site traces, mean±S.D.
Excerpt: It can be observed that Pol II accumulates at sites of active nascent transcription. Example implementations may first image Pol II dynamics relative to transcription from a single promoter in a synthetic “mini-gene” system, stably integrated as single copies in U-2 OS cells (FIGS. 4A, 11A-11C). Example implementations may track nascent RNA production via phage PP7-derived stem-loops (24×PP7) and a tandem-dimer phage coat protein EGFP fusion (tdPCP-EGFP).
It can be observed in various embodiments that target-locking enables tracking Pol II dynamics during the transcription cycle. […]
Wide-Field Cell Imaging Experiments. […] The CCD data were analyzed using IDL 6.4 (ITTVIS). Maximum projection images were calculated for each stack, and the resulting 11 sec/frame movie was used to track the intensities of individual tdPCP-EGFP-tagged transcription sites. […] The auto-correlation function was calculated (for the tdPCP-EGFP fluctuation analysis), or the data were imported in Origin 8.5.0 (OriginLab) and the trace fitted to a single-exponential decay (for the transcription inhibition experiments).

[2] = tested on: Pol II (FLAG-SNAP-Rpb1) at the Pou5f1 locus; assay: ChIP-qPCR of Pol II at the Pou5f1 locus after flavopiridol treatment (mESCs); assay type: cell-based, mouse; conditions: 10 μM flavopiridol; by the 5-minute and 12.5-minute time points respectively
Method: mESCs. Confluent 15 cm dishes (˜10×10^6 OMG SNAP-Rpb1 clone 3 cells) were treated with 10 μM Flavopiridol or DMSO for the indicated times. Methanol-free formaldehyde (Thermo Fisher) was then directly added to the media to 1% v/v final concentration, and dishes were immediately placed on a rotator/shaker for 10 min at RT. Formaldehyde was quenched with 125 mM glycine for 5 min at RT, and cells were scraped and collected with centrifugation (800×g, 5 min at 4° C.) and washed twice with cold PBS. Cells were lysed with SDS lysis buffer (50 mM Tris-HCl pH 8, 10 mM EDTA, 1% SDS) containing protease inhibitors, and placed on ice for 10 min. Volume equivalent to 2×10^6 cells was sonicated to shear the chromatin (Branson SFX 150), and cleared using centrifugation (12,000 g, 10 min at 4° C.). The supernatant was diluted 1:10 in dilution buffer (0.01% SDS, 1.1% Triton X-100, 1.2 mM EDTA, 16.7 mM Tris-HCl pH 8, 167 mM NaCl)+protease inhibitors, pre-cleared using magnetic Protein G beads (Thermo Fisher Scientific 10003 D), for ˜2 hr at 4° C., cleared by separating the beads with a magnet, and 2% of the pre-cleared supernatant was kept at −20° C. as input. […] Eluted chromatin was analyzed with qPCR, using primer pairs specific for different Pou5f1/Oct4 regions.

Structure (SMILES)	tdPCP-EGFP exponential decay time [1]	Pol II ChIP signal at Pou5f1 gene body and 3'UTR regions [2]
CN1CC[C@H](c2c(O)cc(O)c3c(=O)cc(-c4ccccc4Cl)oc23)[C@H](O)C1 [flavopiridol]	132 ± 38 s	significant and near-complete losses
CC(C)[C@]12O[C@H]1[C@@H]1O[C@]13[C@]1(O[C@H]1C[C@H]1C4=C(CC[C@@]13C)C(=O)OC4)[C@@H]2O [triptolide]	179 ± 57 s	
